Test results reported in paper PMC4403932 (Journal of Medicinal Chemistry, 2015).
Where two headings read alike, the source gives them in different places.

What was measured:
Assay type in all cases: binding
BRD2(2) = target: T1, BRD2(2) (Homo sapiens, UniProt P25440); assay: Protein stability (thermal) shift assay, BRD2(2); details: compound 10 μM, protein 2 μM; average of triplicate
T1 construct: made in house
Method: (§1) Thermal melting experiments were carried out using an Mx3005p real time PCR machine (Stratagene). Proteins were buffered in 10 mM HEPES, pH 7.5, 500 mM NaCl and assayed in a 96-well plate at a final concentration of 2 μM in 20 μL volume. Compounds were added at a final concentration of 10 or 100 μM. SYPRO Orange (Molecular Probes) was added as a fluorescence probe at a dilution of 1 in 1000. Excitation and emission filters for the SYPRO-Orange dye were set to 465 and 590 nm, respectively. The temperature was raised with a step of 3 °C per minute from 25 to 96 °C, and fluorescence readings were taken at each interval. The temperature dependence of the fluorescence during the protein denaturation process was approximated by the equation [drawing 1] where ΔuG is the difference in unfolding free energy between the folded and unfolded state, R is the gas constant, and yF and yU are the fluorescence intensity of the probe in the presence of completely folded and unfolded protein, respectively.[65] The baselines of the denatured and native states were approximated by a linear fit. The observed temperature shifts, ΔTm^obs, were recorded as the difference between the transition midpoints of sample and reference wells containing protein without ligand in the same plate and determined by nonlinear least-squares fit. Temperature shifts (ΔTm^obs) for three independent measurements per proteins/compound are summarized in Supporting Information Table S1.

BRD2(1) = target: T2, BRD2(1) (Homo sapiens, UniProt P25440); assay: Protein stability (thermal) shift assay, BRD2(1); details: for ΔTm at 10 µM: compound 10 μM, protein 2 μM, average of triplicate
T2 construct: Fragments were tested in a thermal shift assay against bromodomains of the BET subfamily; made in house
Method: as §1

CREBBP = target: T3, CREBBP (Homo sapiens, UniProt Q92793); assay: Protein stability (thermal) shift assay, CREBBP; details: compound 10 μM, protein 2 μM; average of triplicate; read-out: ΔTm Shift, CREBBP
T3 construct: small thermal shits (1.0–1.3 °C) for the bromodomain of CREBBP; made in house
Method: as §1

BRD4(1) [1] = target: T4, BRD4(1) (Homo sapiens, UniProt O60885); assay: Protein stability (thermal) shift assay, BRD4(1)
T4 construct: made in house
Method: as §1

BRD9 [2] = target: T5, BRD9 (Homo sapiens, UniProt Q9H8M2); assay: Isothermal titration calorimetry, BRD9; details: for Kd / ΔG / N (stoichiometry) / TΔS / ΔHobs: ITC; for LE (ligand efficiency): LE = ΔG/N, N number of non-hydrogen atoms
T5 construct: made in house
T5 sequence (Q9H8M2 136-240 limits assumed): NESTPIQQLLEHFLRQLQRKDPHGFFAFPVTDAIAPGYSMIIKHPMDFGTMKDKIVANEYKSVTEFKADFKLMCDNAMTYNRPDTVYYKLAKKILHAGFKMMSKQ
Method: (§2) Experiments were carried out on an ITC200 titration microcalorimeter from MicroCal, LLC (GE Healthcare) equipped with a Washing module, with a cell volume of 0.2003 mL, and a 40 μL microsyringe. Experiments were carried out at 15 °C while stirring at 1000 rpm, in ITC buffer (50 mM HEPES, pH 7.5 (at 25 °C), 150 mM NaCl). The microsyringe was loaded with a solution of the protein sample (300−740 μM protein for BRD9 and BRD4(1), respectively, in ITC buffer) and was carefully inserted into the calorimetric cell which was filled with an amount of the ligand (0.2 mL, 20–25 μM in ITC buffer). The system was first allowed to equilibrate until the cell temperature reached 15 °C, and an additional delay of 60 s was applied. All titrations were conducted using an initial control injection of 0.3 μL followed by 38 identical injections of 1 μL with a duration of 2 s (per injection) and a spacing of 120 s between injections. The titration experiments were designed in such a fashion as to ensure complete saturation of the proteins before the final injection. The heat of dilution for the proteins was independent of their concentration and corresponded to the heat observed from the last injection, following saturation of ligand binding, thus facilitating the estimation of the baseline of each titration from the last injection. The collected data were corrected for protein heats of dilution (measured on separate experiments by titrating the proteins into ITC buffer) and deconvoluted using the MicroCal Origin software supplied with the instrument to yield enthalpies of binding (ΔH) and binding constants (KB) in the same fashion as that previously described in detail by Wiseman and co-workers.[66] Thermodynamic parameters were calculated using the basic equation of thermodynamics (ΔG = ΔH – TΔS = −RT ln KB, where ΔG, ΔH, and ΔS are the changes in free energy, enthalpy, and entropy of binding, respectively). In all cases a single binding site model was employed, supplied with the MicroCal Origin software package.

BRD4(2) = target: T6, BRD4(2) (Homo sapiens, UniProt O60885); assay: Protein stability (thermal) shift assay, BRD4(2); details: compound 10 μM, protein 2 μM; average of triplicate
T6 construct: made in house
Method: as §1

PCAF = target: T7, PCAF (Homo sapiens, UniProt Q92831); assay: Protein stability (thermal) shift assay, PCAF; details: for ΔTm at 10 µM: compound 10 μM, protein 2 μM, average of triplicate
T7 construct: representative BRDs from other structural subfamilies (family I, PCAF); made in house
T7 sequence (Q92831 723-827 limits assumed): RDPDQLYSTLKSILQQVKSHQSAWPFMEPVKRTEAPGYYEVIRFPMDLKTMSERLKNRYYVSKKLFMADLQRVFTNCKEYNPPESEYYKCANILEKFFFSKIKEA
Method: as §1

BRDT(2) = target: T8, BRDT(2) (Homo sapiens, UniProt Q58F21); assay: Protein stability (thermal) shift assay, BRDT(2); details: compound 10 μM, protein 2 μM; average of triplicate; read-out: ΔTm Shift, BRDT(2)
T8 construct: made in house
Method: as §1

BRD3(1) = target: T9, BRD3(1) (Homo sapiens, UniProt Q15059); assay: Protein stability (thermal) shift assay, BRD3(1); details: compound 10 μM, protein 2 μM; average of triplicate
T9 construct: Fragments were tested in a thermal shift assay against bromodomains of the BET subfamily; made in house
Method: as §1

BAZ2B = target: T10, BAZ2B (Homo sapiens, UniProt Q9UIF8); assay: Protein stability (thermal) shift assay, BAZ2B; details: compound 10 μM, protein 2 μM; average of triplicate; read-out: ΔTm Shift, BAZ2BA
T10 construct: representative BRDs from other structural subfamilies (family I, PCAF); family III, CREBBP; family IV, BRD9; family V, BAZ2B; made in house
T10 sequence (Q9UIF8 2060-2164 limits assumed): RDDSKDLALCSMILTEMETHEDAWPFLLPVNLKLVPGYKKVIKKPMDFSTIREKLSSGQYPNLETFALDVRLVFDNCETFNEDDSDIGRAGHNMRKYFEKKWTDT
Method: as §1

BRD4(1) [3] = target: T4, BRD4(1); assay: Isothermal titration calorimetry, BRD4(1); details: for LE (ligand efficiency): LE = ΔG/N, N number of non-hydrogen atoms
Method: as §2

BRD9 [4] = target: T5, BRD9; assay: Protein stability (thermal) shift assay, BRD9
Method: as §1

PB1(5) = target: T11, PB1(5) (Homo sapiens, UniProt Q86U86); assay: Protein stability (thermal) shift assay, PB1(5); details: compound 10 μM, protein 2 μM; average of triplicate
T11 construct: made in house
Method: as §1

BRD3(2) = target: T12, BRD3(2) (Homo sapiens, UniProt Q15059); assay: Protein stability (thermal) shift assay, BRD3(2); details: compound 10 μM, protein 2 μM; average of triplicate
T12 construct: made in house
Method: as §1

BRDT(1) = target: T13, BRDT(1) (Homo sapiens, UniProt Q58F21); assay: Protein stability (thermal) shift assay, BRDT(1); details: compound 10 μM, protein 2 μM; average of triplicate
T13 construct: made in house
Method: as §1

[5] = system: human bromodomains (panel); assay: Protein stability (thermal) shift assay, whole panel of human bromodomains; details: 10 μM compound
Method: as §1

[6] = compound 10 μM, protein 2 μM, average of triplicate, read-out: ΔTm Shift, BRD4(1)
[7] = 50 mM HEPES pH 7.5, 150 mM NaCl, 15 °C, reverse titration, triplicate, read-out: KD
[8] = ITC, 50 mM HEPES pH 7.5, 150 mM NaCl, 15 °C, reverse titration, triplicate, read-out: KD
[9] = ITC, read-out: dissociation constant
[10] = compound 10 μM, protein 2 μM, average of triplicate, read-out: ΔTm Shift, BRD9
[11] = thermal shift, 10 μM compound, 2 μM protein, read-out: ΔTm

T9 sequence (Q15059 34-140 limits assumed): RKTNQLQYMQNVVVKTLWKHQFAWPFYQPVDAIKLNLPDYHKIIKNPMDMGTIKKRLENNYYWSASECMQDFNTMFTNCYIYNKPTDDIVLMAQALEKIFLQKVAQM
T12 sequence (Q15059 306-415 limits assumed): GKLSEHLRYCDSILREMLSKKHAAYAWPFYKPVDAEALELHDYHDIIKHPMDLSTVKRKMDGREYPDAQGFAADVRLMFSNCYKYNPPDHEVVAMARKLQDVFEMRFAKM
T1 sequence (P25440 344-453 limits assumed): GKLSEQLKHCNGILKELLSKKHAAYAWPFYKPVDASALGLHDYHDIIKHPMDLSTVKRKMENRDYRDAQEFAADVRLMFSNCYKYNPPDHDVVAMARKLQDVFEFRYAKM
T3 sequence (Q92793 1085-1192 limits assumed): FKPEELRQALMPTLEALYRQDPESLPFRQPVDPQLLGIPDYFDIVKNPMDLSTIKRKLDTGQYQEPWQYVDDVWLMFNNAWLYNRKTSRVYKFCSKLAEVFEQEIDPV
T11 sequence (Q86U86 653-763 limits assumed): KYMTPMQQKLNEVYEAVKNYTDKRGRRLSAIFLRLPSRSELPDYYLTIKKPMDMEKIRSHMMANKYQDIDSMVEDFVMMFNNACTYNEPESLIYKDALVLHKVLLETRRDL
T2 sequence (P25440 74-180 limits assumed): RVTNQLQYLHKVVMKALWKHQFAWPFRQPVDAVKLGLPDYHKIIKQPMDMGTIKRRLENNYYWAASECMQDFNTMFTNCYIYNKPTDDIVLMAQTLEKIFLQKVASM

ΔTm at 10 µM (BRD2(2)) [°C] | ΔTm at 10 µM (BRD2(1)) [°C] | ΔTm at 10 µM (CREBBP) [°C] | ΔTm at 10 µM (BRD4(1) [1]; [6]) [°C] | Kd (BRD9 [2]; [7]) [µM] | ΔG (BRD9 [2]; 15 °C) | N (stoichiometry) (BRD9 [2]; 15 °C, reverse titration) | LE (ligand efficiency) (BRD9 [2]) | ΔTm at 10 µM (BRD4(2)) [°C] | ΔTm at 10 µM (PCAF) [°C] | ΔTm at 10 µM (BRDT(2)) [°C] | ΔTm at 10 µM (BRD3(1)) [°C] | ΔTm at 10 µM (BAZ2B) [°C] | Kd (BRD4(1) [3]; [8]) [µM] | ΔG (BRD4(1) [3]; ITC, 15 °C) | N (stoichiometry) (BRD4(1) [3]; ITC, 15 °C, reverse titration) | ΔTm at 10 µM (BRD9 [4]; [10]) [°C] | ΔTm at 10 µM (PB1(5)) [°C] | ΔTm at 10 µM (BRD3(2)) [°C] | ΔTm at 10 µM (BRDT(1)) [°C] | SMILES | also measured
0.9 | 1.7 | 0.847 | 1.4 | 8.47 ± 0.237 | –6.69 kcal/mol | 0.99 ± 0.010 | 0.42 | 0.5 | 1.3 | 0.7 | 0.9 | 0.537 | 12 ± 0.743 | –6.48 kcal/mol | 1.03 ± 0.049 | -0.107 | 0.9 | 0.6 | 0.739 | Nc1nc(-c2ccccc2)c2nc[nH]c2n1 [Compound 3a, 2-Amino-6-phenyl-9H-purine] | stabilization of BRD2(1) in thermal melt assay (in words) (BRD2(1); thermal shift, 10 μM compound): stabilized; stabilization of BRD4(1) in thermal melt assay (in words) (BRD4(1) [1]; thermal shift, 10 μM compound): stabilized; Kd (BRD9 [2]; read-out: dissociation constant): 8.5 µM; stabilization of PCAF in thermal melt assay (in words) (PCAF; thermal shift, 10 μM compound): stabilized; Kd (BRD4(1) [3]; [9]): 12 µM; LE (ligand efficiency) (BRD4(1) [3]): 0.41; binding to BRD9 in the ΔTm assay (in words) (BRD9 [4]; thermal shift, 10 μM compound): lack of affinity
3.8 | 2 | 2.6 | 3.5 | – | – | – | – | -51.9 | 2.8 | 3.2 | 2.2 | – | – | – | – | -0.116 | 1.5 | 4.2 | 1.8 | Nc1nc(-c2ccc(OCc3ccccc3)cc2)c2nc[nH]c2n1 [Compound 3f, 2-Amino-6-(4-(benzyloxy)phenyl)-9H-purine] | binding to the bromodomain panel in the ΔTm assay (in words) [5]: showed binding toward all BRDs
0.8 | 0.3 | 0.356 | 0.369 | 0.351 ± 0.018 | –8.52 kcal/mol | 0.97 ± 0.004 | 0.45 | 0.1 | -0.151 | 3 | 0.548 | 0.3 | – | – | – | 2.6 | 0.5 | 0.8 | -0.111 | COc1ccc(F)cc1-c1nc(N)nc2[nH]cnc12 [Compound 7b, 2-Amino-6-(5-fluoro-2-methoxyphenyl)-9H-purine] | TΔS (BRD9 [2]; 15 °C): –4.52 kcal/mol; ΔHobs (BRD9 [2]; 15 °C, reverse titration): –13.04 ± 0.07 kcal/mol
1.2 | 0.4 | 0.272 | – | 0.297 ± 0.01 | –8.59 kcal/mol | 0.98 ± 0.003 | 0.45 | 0.7 | -0.9 | 0.272 | 0.9 | 0.272 | 2.04 ± 0.118 | –7.50 kcal/mol | 1.05 ± 0.012 | – | 0.272 | 1.3 | 0.272 | COc1ccc(Cl)cc1-c1nc(N)nc2[nH]cnc12 [Compound 7c, 2-Amino-6-(5-chloro-2-methoxyphenyl)-9H-purine] | ΔTm at 10 µM (BRD4(1) [1]; [11]): 1.1 °C; TΔS (BRD9 [2]; 15 °C): –3.46 kcal/mol; ΔHobs (BRD9 [2]; 15 °C, reverse titration): –12.05 ± 0.04 kcal/mol; TΔS (BRD4(1) [3]; ITC, 15 °C): 1.29 kcal/mol; ΔHobs (BRD4(1) [3]; ITC, 15 °C, reverse titration): –6.21 ± 0.09 kcal/mol; Kd (BRD4(1) [3]; [9]): 2.04 µM; LE (ligand efficiency) (BRD4(1) [3]): 0.39; ΔTm at 10 µM (BRD9 [4]; [11]): 3.8 °C
